What was measured:
[1] = biological target: T1, motilin receptors (Oryctolagus cuniculus, UniProt G1T803); assay: Binding capacity to motilin receptors: displacement of 125-iodine-labelled motilin, rabbit antrum crude membrane preparation; details: rabbit antrum crude membrane fraction, iodinated motilin 50 pM, 30° C., 60 minutes; read-out: pIC50 value (50% inhibition of the specific binding of the iodinated motilin to the motilin receptors) (converted)
T1 construct: fraction of a tissue homogenate from rabbit antrum; from tissue; host or cells: rabbit antrum, mucosa removed, crude membrane preparation
Method: 1. Determination of the binding capacity of the test substances to motilin receptors.
The affinity of the compounds of the formula I for motilin receptors is measured in vitro on a fraction of a tissue homogenate from rabbit antrum. The displacement of radioactively labelled iodinated motilin from motilin receptor binding by the test substances is determined.
The receptor binding studies were carried out by a modification of the method of Borman et al. (Regulatory Peptides 15 (1986), 143-153). To prepare the ^125 iodine-labelled motilin, motilin is iodinated enzymatically using lactoperoxidase in a known manner, for example analogously to the method described by Bloom et al. (Scand. J. Gastroenterol. 11 (1976) 47-52). […]
For the binding test, 200 μl of the crude membrane fraction (0.5-1 mg of protein) in 400 μl of a buffer solution A (50 mM tris-HCl buffer, 1.5% BSA, 10 mM MgCl2, pH 8.0) were incubated with 100 μl of iodinated motilin diluted in buffer solution B (10 mM tris-HCl buffer, 1% BSA, pH 8) (final concentration 50 pM) at 30° C. for 60 minutes. […] The residue obtained as pellet after the centrifugation was washed with buffer solution B and counted in a gamma counter. […] From this the corresponding pIC50 value was calculated.

[2] = tested on: beagle dogs; assay: In vivo determination of the effect on the rate of gastric emptying
Method: 2. In vivo determination of the effect of the substances on the rate of gastric emptying.
The determination of the rate of gastric emptying was carried out on beagle dogs which, before the test, had undergone surgical establishment of an esophagus fistula and implantation of a duodenal cannula. 15 minutes after duodenal administration of the test substances, the fasting conscious dogs were given 285 g of a semisolid caloric test meal through the esophagus fistula. The contents emptied from the stomach were collected through the duodenal cannula at 15-minute intervals. From the collected amounts of stomach contents, the time within which 50% emptying of the stomach takes place was calculated. The time is reported as measure of gastric emptying.

[3] = tested on: beagle dogs; assay: In vivo determination of the effect on the resting tone of the esophagus sphincter (pull-through manometry); details: conscious fasting beagle dogs, 0.251 μmole/kg intraduodenally
Method: 3. In vivo determination of the effect of the substances on the resting tone of the esophagus sphincter.
This determination is carried out on trained, conscious, fasting beagle dogs which, before the test, have each been given an esophagus fistula and a duodenal cannula. The pressure of the lower esophagus sphincter is measured by means of a perfused catheter system which has a lateral opening and which is connected to a pressure transducer and a recorder. The catheter is passed through the esophagus fistula into the stomach and then slowly withdrawn manually (=pull-through manometry). A peak is recorded when the catheter part with the lateral opening passes through the high-pressure zone of the lower esophagus sphincter. The pressure in mm Hg is determined from this peak.
In this way, initially the basal pressure of the esophagus sphincter is determined as control value. Subsequently, the test substance is administered intraduodenally and, after 15 minutes, the pressure at the lower esophagus sphincter is measured at 2-minute intervals for a period of 46 minutes. The increase in the pressure after administration of test substance compared with the previously determined basal pressure is calculated.

T1 sequence (G1T803 1-400): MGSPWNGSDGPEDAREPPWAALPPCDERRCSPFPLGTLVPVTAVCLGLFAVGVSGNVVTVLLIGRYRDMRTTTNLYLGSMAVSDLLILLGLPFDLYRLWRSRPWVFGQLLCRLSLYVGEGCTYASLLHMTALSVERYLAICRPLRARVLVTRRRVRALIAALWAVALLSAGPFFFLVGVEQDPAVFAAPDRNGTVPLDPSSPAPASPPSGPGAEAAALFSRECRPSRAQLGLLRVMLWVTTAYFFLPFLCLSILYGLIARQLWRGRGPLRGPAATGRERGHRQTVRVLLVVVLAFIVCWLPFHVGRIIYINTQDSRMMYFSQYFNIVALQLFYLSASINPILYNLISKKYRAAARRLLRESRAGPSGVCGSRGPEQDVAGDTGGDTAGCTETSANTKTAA

IC50 [1]: 4.79 nM
SMILES: CC[C@@H](O)[C@@](C)(O)[C@@H]1OC(=O)[C@H](C)[C@@H](O[C@H]2C[C@@](C)(OC)[C@@H](O)[C@H](C)O2)[C@H](C)[C@@H](O[C@@H]2O[C@H](C)C[C@H](N(C)C(C)C)[C@H]2O)[C@@]2(C)CC(C)=C(O2)[C@@H]1C [Example 1, [2R,3R(2R',3R'),6R,7S,8S,9R,10R]-3-(2',3'-dihydroxypent-2'-yl)-7-[(2,6-dideoxy-3-C-methyl-3-0-methyl-α-L-ribo-hexopyranosyl)-oxy]-9-[(3,4,6-trideoxy-3-(N-methyl-N-isopropylamino)-β-D-xylo-hexopyranosyl)-oxy]-2,6,8,10,12-pentamethyl-4,13-dioxabicyclo[8.2.1]tridec-12-en-5-one]
effect on gastric emptying (in words) ([2]; beagle dogs, dose of 0.46 μmole/kg, duodenal administration): distinct stimulation of gastric emptying | time for 50% emptying of the stomach ([2]; fasting conscious beagle dogs, 0.46 μmole/kg duodenal, 15 minutes before semisolid caloric test meal, control animal group 46 minutes): 27 min | change of basal tone of the esophagus sphincter ([3]; compared with basal pressure): more than doubled | persistence of the effect on esophagus sphincter tone ([3]; throughout duration of the test): ≥ 45 min
